Reference: patent US11629171B2, “Beta-hairpin peptidomimetics” (POLYPHOR AG, priority 2017, dated 2023)
≈ marks a conversion by molar mass, not a printed value. Where a SMILES comes first, the peptide text is derived from it. Bridges are numbered along the chain shown (N, C = ends). Roman numbers before positions name the chains, in order. [ ]: non-standard residue; d: D form. The star is where a group is joined. Thr(ol) = C[C@@H](O)[C@H](N)CO; Tle = CC(C)(C)[C@H](N)C(=O)O; Isovaleryl = CC(C)CC(=O)*; dDab = NCC[C@@H](N)C(=O)O; hSer = N[C@@H](CCO)C(=O)O; Isobutyryl = CC(C)C(=O)*; NHCH(CH2OH)2 = OCC(CO)N*; Dab = NCC[C@H](N)C(=O)O; Dap = NC[C@H](N)C(=O)O; NHCH2CH2OH = OCCN*

Columns and labels:
Format in all cases: cell-based
[1] = tested on: human red blood cells (hRBC); test: Hemolysis; details: red cells of human, 1 h, 200
How it was run: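 Washed fresh human RBC (20% v/v) incubated with peptide at 200 μg/mL for 1 h at 37° C with shaking. Supernatant OD540 measured after dilution, blank corrected; percent hemolysis = OD540 peptide / OD540 of 2% Triton X-100 lysis × 100, PBS with 10% water as 0%.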

[2] = tested on: Klebsiella pneumoniae 968733; details: 968733
How it was run: (§1)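 CLSI broth microdilution in cation-adjusted Mueller-Hinton II broth with 0.002% polysorbate 80 (final), inoculum appr. 10^6 CFU/mL, peptides in serial two-fold dilutions. MIC (μg/mL) is the lowest concentration without visible growth after 18-20 h at 35° C.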

[3] = tested on: Acinetobacter baumannii 872842; details: 872842
How it was run: as §1

[4] = tested on: Pseudomonas aeruginosa ATCC 27853; details: ATCC 27853
How it was run: as §1

[5] = tested on: Klebsiella pneumoniae SSI #3010; details: SSI #3010
How it was run: as §1

[6] = tested on: Escherichia coli ATCC 25922; details: ATCC 25922
How it was run: as §1

[7] = tested on: Acinetobacter baumannii DSM 30008; details: DSM 30008
How it was run: as §1

[8] = tested on: Enterobacter cloacae 848840; details: 848840
How it was run: as §1

[9] = tested on: Escherichia coli 926415; details: 926415
How it was run: as §1

Compound	Hemolysis at 200 μg/mL [1] [%]	MIC [2] [µg/mL]	MIC [3] [µg/mL]	Pseudomonas aeruginosa ATCC 27853 MIC [4] [µg/mL]	Klebsiella pneumoniae SSI #3010 MIC [5] [µg/mL]	Escherichia coli ATCC 25922 MIC [6] [µg/mL]	Acinetobacter baumannii DSM 30008 MIC [7] [µg/mL]	MIC [8] [µg/mL]	MIC [9] [µg/mL]	MIC [4] [µg/mL]	MIC [5] [µg/mL]	MIC [6] [µg/mL]	MIC [7] [µg/mL]
CC(=O)N[C@H](C(=O)N[C@H]1CSSC[C@@H](C(=O)N[C@@H](CO)C(=O)N[C@H](C)C(N)=O)NC(=O)[C@H](C(C)C)NC(=O)[C@H](CO)NC(=O)[C@H](Cc2c[nH]c3ccccc23)NC(=O)[C@H](CO)NC(=O)[C@@H](CCN)NC(=O)[C@H](CCC(=O)N[C@@H](CCN)C(=O)N[C@H](C(=O)N[C@@H](CN)C(=O)N[C@H]2CCNC(=O)[C@H]([C@@H](C)O)NC(=O)[C@H](CCN)NC(=O)[C@H](CCN)NC(=O)[C@H](CC(C)C)NC(=O)[C@@H](CC(C)C)NC(=O)[C@H](CCN)NC2=O)[C@@H](C)O)NC(=O)[C@H](CCN)NC(=O)[C@H](Cc2ccc(O)cc2)NC1=O)C(C)C [Ex. 378] (I: Ac-VCY[Dab]E[dDab]SWSVCS[dA]-NH2 / II: [Dab]T[Dap][Dab][Dab][dL]L[Dab][Dab]T; disulfide I:2-I:11; amide I:5-II:N; lactam II:4-II:C)	<1	0.125 (≈ 0.0506 µM)	0.0625 (≈ 0.0253 µM)	0.0625	0.0625	0.0625	0.03125	0.0625 (≈ 0.0253 µM)	0.0625 (≈ 0.0253 µM)				
CC(=O)N[C@H](C(=O)N[C@H]1CSSC[C@@H](C(=O)O)NC(=O)[C@H](C(C)C)NC(=O)[C@H](CO)NC(=O)[C@H](Cc2c[nH]c3ccccc23)NC(=O)[C@H](CO)NC(=O)[C@@H](CCN)NC(=O)[C@H](CCC(=O)N[C@@H](CCN)C(=O)N[C@H](C(=O)N[C@@H](CN)C(=O)N[C@H]2CCNC(=O)[C@H]([C@@H](C)O)NC(=O)[C@H](CCN)NC(=O)[C@H](CCN)NC(=O)[C@H](CC(C)C)NC(=O)[C@@H](CC(C)C)NC(=O)[C@H](CCN)NC2=O)[C@@H](C)O)NC(=O)[C@H](CCN)NC(=O)[C@H](Cc2ccc(O)cc2)NC1=O)C(C)C [Ex. 384] (I: Ac-VCY[Dab]E[dDab]SWSVC-OH / II: [Dab]T[Dap][Dab][Dab][dL]L[Dab][Dab]T; disulfide I:2-I:11; amide I:5-II:N; lactam II:4-II:C)	<1	>8	2 (≈ 0.865 µM)	0.5	0.25	0.125	1	2 (≈ 0.865 µM)	4 (≈ 1.73 µM)				
CC(C)CC(=O)N[C@H]1CSSC[C@@H](C(=O)NCCO)NC(=O)[C@H](C(C)(C)C)NC(=O)[C@H](CO)NC(=O)[C@H](Cc2c[nH]c3ccccc23)NC(=O)[C@H]([C@@H](C)O)NC(=O)[C@@H](CCN)NC(=O)[C@H](CCC(=O)N[C@@H](CCN)C(=O)N[C@H](C(=O)N[C@@H](CCN)C(=O)N[C@H]2CCNC(=O)[C@H]([C@@H](C)O)NC(=O)[C@H](CCN)NC(=O)[C@H](CCN)NC(=O)[C@H](CC(C)C)NC(=O)[C@@H](CC(C)C)NC(=O)[C@H](CCN)NC2=O)[C@@H](C)O)NC(=O)[C@H](CN)NC(=O)[C@H](Cc2ccc(O)cc2)NC1=O [Example 1] (I: Isovaleryl-CY[Dap]E[dDab]TWS[Tle]C-NHCH2CH2OH / II: [Dab]T[Dab][Dab][Dab][dL]L[Dab][Dab]T; disulfide I:1-I:10; amide I:4-II:N; lactam II:4-II:C)	<1	2 (≈ 0.86 µM)	1 (≈ 0.43 µM)					4 (≈ 1.72 µM)	1 (≈ 0.43 µM)	0.125 (≈ 0.0537 µM)	0.5 (≈ 0.215 µM)	0.125 (≈ 0.0537 µM)	0.125 (≈ 0.0537 µM)
CC(C)CC(=O)N[C@H]1CSSC[C@@H](C(=O)N[C@H](CO)[C@@H](C)O)NC(=O)[C@H](C(C)(C)C)NC(=O)[C@H](CO)NC(=O)[C@H](Cc2c[nH]c3ccccc23)NC(=O)[C@H](CCO)NC(=O)[C@@H](CCN)NC(=O)[C@H](CCC(=O)N[C@@H](CCN)C(=O)N[C@H](C(=O)N[C@@H](CCN)C(=O)N[C@H]2CCNC(=O)[C@H]([C@@H](C)O)NC(=O)[C@H](CCN)NC(=O)[C@H](CCN)NC(=O)[C@H](CC(C)C)NC(=O)[C@@H](CC(C)C)NC(=O)[C@H](CCN)NC2=O)[C@@H](C)O)NC(=O)[C@H](CCN)NC(=O)[C@H](Cc2ccc(O)cc2)NC1=O [Example 2] (I: Isovaleryl-CY[Dab]E[dDab][hSer]WS[Tle]C[Thr(ol)] / II: [Dab]T[Dab][Dab][Dab][dL]L[Dab][Dab]T; disulfide I:1-I:10; amide I:4-II:N; lactam II:4-II:C)	<1	0.25 (≈ 0.105 µM)	0.125 (≈ 0.0524 µM)					0.5 (≈ 0.21 µM)	0.125 (≈ 0.0524 µM)	0.25 (≈ 0.105 µM)	0.5 (≈ 0.21 µM)	0.125 (≈ 0.0524 µM)	0.125 (≈ 0.0524 µM)
CC(C)C[C@@H]1NC(=O)[C@@H](CC(C)C)NC(=O)[C@H](CCN)NC(=O)[C@@H](NC(=O)[C@H](CCN)NC(=O)[C@@H](NC(=O)[C@H](CCN)NC(=O)CC[C@@H]2NC(=O)[C@H](CCN)NC(=O)[C@H](Cc3ccc(O)cc3)NC(=O)[C@@H](NC(=O)C(C)C)CSSC[C@@H](C(=O)N[C@H](CO)[C@@H](C)O)NC(=O)[C@H](C(C)(C)C)NC(=O)[C@H](CO)NC(=O)[C@H](Cc3c[nH]c4ccccc34)NC(=O)[C@H](CCO)NC(=O)[C@@H](CCN)NC2=O)[C@@H](C)O)CCNC(=O)[C@H]([C@@H](C)O)NC(=O)[C@H](CCN)NC(=O)[C@H](CCN)NC1=O [Example 3] (I: Isobutyryl-CY[Dab]E[dDab][hSer]WS[Tle]C[Thr(ol)] / II: [Dab]T[Dab][Dab][Dab][dL]L[Dab][Dab]T; disulfide I:1-I:10; amide I:4-II:N; lactam II:4-II:C)	<1	0.25 (≈ 0.105 µM)	0.125 (≈ 0.0527 µM)					2 (≈ 0.844 µM)	0.25 (≈ 0.105 µM)	0.125 (≈ 0.0527 µM)	0.125 (≈ 0.0527 µM)	0.125 (≈ 0.0527 µM)	0.0625 (≈ 0.0264 µM)
CC(C)CC(=O)N[C@H]1CSSC[C@@H](C(=O)N[C@H](CO)[C@@H](C)O)NC(=O)[C@H](C(C)(C)C)NC(=O)[C@H](CO)NC(=O)[C@H](Cc2c[nH]c3ccccc23)NC(=O)[C@H]([C@@H](C)O)NC(=O)[C@@H](CCN)NC(=O)[C@H](CCC(=O)N[C@@H](CCN)C(=O)N[C@H](C(=O)N[C@@H](CCN)C(=O)N[C@H]2CCNC(=O)[C@H]([C@@H](C)O)NC(=O)[C@H](CCN)NC(=O)[C@H](CCN)NC(=O)[C@H](CC(C)C)NC(=O)[C@@H](CC(C)C)NC(=O)[C@H](CCN)NC2=O)[C@@H](C)O)NC(=O)[C@H](CN)NC(=O)[C@H](Cc2ccc(O)cc2)NC1=O [Example 4] (I: Isovaleryl-CY[Dap]E[dDab]TWS[Tle]C[Thr(ol)] / II: [Dab]T[Dab][Dab][Dab][dL]L[Dab][Dab]T; disulfide I:1-I:10; amide I:4-II:N; lactam II:4-II:C)	1	0.5 (≈ 0.211 µM)	0.125 (≈ 0.0527 µM)					0.25 (≈ 0.105 µM)	0.25 (≈ 0.105 µM)	0.125 (≈ 0.0527 µM)	0.125 (≈ 0.0527 µM)	0.125 (≈ 0.0527 µM)	0.0625 (≈ 0.0264 µM)
CC(C)CC(=O)N[C@H]1CSSC[C@@H](C(=O)NC(CO)CO)NC(=O)[C@H](C(C)(C)C)NC(=O)[C@H](CO)NC(=O)[C@H](Cc2c[nH]c3ccccc23)NC(=O)[C@H]([C@@H](C)O)NC(=O)[C@@H](CCN)NC(=O)[C@H](CCC(=O)N[C@@H](CCN)C(=O)N[C@H](C(=O)N[C@@H](CCN)C(=O)N[C@H]2CCNC(=O)[C@H]([C@@H](C)O)NC(=O)[C@H](CCN)NC(=O)[C@H](CCN)NC(=O)[C@H](CC(C)C)NC(=O)[C@@H](CC(C)C)NC(=O)[C@H](CCN)NC2=O)[C@@H](C)O)NC(=O)[C@H](CN)NC(=O)[C@H](Cc2ccc(O)cc2)NC1=O [Example 5] (I: Isovaleryl-CY[Dap]E[dDab]TWS[Tle]C-{NHCH(CH2OH)2} / II: [Dab]T[Dab][Dab][Dab][dL]L[Dab][Dab]T; disulfide I:1-I:10; amide I:4-II:N; lactam II:4-II:C)	<1	0.25 (≈ 0.106 µM)	0.125 (≈ 0.053 µM)					0.125 (≈ 0.053 µM)	0.125 (≈ 0.053 µM)	0.125 (≈ 0.053 µM)	0.125 (≈ 0.053 µM)	0.0625 (≈ 0.0265 µM)	0.0625 (≈ 0.0265 µM)
CC(=O)N[C@H](C(=O)N[C@H]1CSSC[C@@H](C(N)=O)NC(=O)[C@H](C(C)C)NC(=O)[C@H](CCO)NC(=O)[C@H](Cc2c[nH]c3ccccc23)NC(=O)[C@H](CCO)NC(=O)[C@@H](CCN)NC(=O)[C@H](CCC(=O)N[C@@H](CCN)C(=O)N[C@H](C(=O)N[C@@H](CCN)C(=O)N[C@H]2CCNC(=O)[C@H]([C@@H](C)O)NC(=O)[C@H](CCN)NC(=O)[C@H](CCN)NC(=O)[C@H](CC(C)C)NC(=O)[C@@H](CC(C)C)NC(=O)[C@H](CCN)NC2=O)[C@@H](C)O)NC(=O)[C@H](CCN)NC(=O)[C@H](Cc2ccc(O)cc2)NC1=O)C(C)C [Example 6] (I: Ac-VCY[Dab]E[dDab][hSer]W[hSer]VC-NH2 / II: [Dab]T[Dab][Dab][Dab][dL]L[Dab][Dab]T; disulfide I:2-I:11; amide I:5-II:N; lactam II:4-II:C)	2	0.5 (≈ 0.212 µM)	4 (≈ 1.7 µM)					4 (≈ 1.7 µM)	0.5 (≈ 0.212 µM)	0.125 (≈ 0.0531 µM)	0.25 (≈ 0.106 µM)	0.125 (≈ 0.0531 µM)	0.125 (≈ 0.0531 µM)
